The record followed here is PubChem BioAssay (NCI).

Some test systems named below: DU-145 prostate; HCT-116 colon; IGROV1 ovarian; NCI-H23 lung; NCI-H460 lung; NCI/ADR-RES ovarian; SK-MEL-28 melanoma; SK-OV-3 ovarian.
Common to all, as to test: NCI anticancer screen, dose series, 48 h

Structures are written as SMILES.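 Tested at 5 concentrations; 48 h exposure; 96-well plates; endpoints linearly interpolated, else capped at highest concentration. At the GI50, growth is halved. Definition used: TGI = concentration required for complete inhibition of growth.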 A value given as a limit tells only on which side of the number the result lay.

Consider `NCCN1CCN(c2nccc(-c3ccc4ccccc4c3)n2)CC1`, for which the GI50 with DU-145 prostate was 1.85 µM; with HCT-116 colon, 1.79 µM; in the assay with IGROV1 ovarian it was 1.97 µM; in the assay with NCI-H23 lung it was 4.17 µM; in the assay with NCI-H460 lung, 1.91 µM; in the assay with NCI/ADR-RES ovarian, 2.48 µM. For the same compound, the GI50 in the assay on SK-MEL-28 melanoma was 1.85 µM; with SK-OV-3 ovarian, 2.1 µM. For the same compound, the TGI in the assay on DU-145 prostate came to 3.42 µM; with HCT-116 colon, 3.3 µM; in the assay with IGROV1 ovarian, 4.12 µM; with NCI-H23 lung, 16.5 µM; in the assay on NCI-H460 lung, 3.69 µM; with NCI/ADR-RES ovarian, 6.71 µM. Further, the TGI with SK-MEL-28 melanoma was 3.42 µM; in the assay with SK-OV-3 ovarian it was 5.34 µM.
Turning to `Cc1ncc(NC(=O)c2ccc(CN3CCN(C)CC3)c(C(F)(F)F)c2)cc1Nc1nccc(-c2cccnc2)n1`, the GI50 is 16.7 µM with DU-145 prostate; 7.92 µM in the assay on HCT-116 colon; 10.7 µM in the assay with IGROV1 ovarian; 14.2 µM in the assay on NCI-H23 lung; 17.4 µM in the assay with NCI-H460 lung; 17.8 µM in the assay with NCI/ADR-RES ovarian. In addition, the GI50 is 12.7 µM in the assay on SK-MEL-28 melanoma and 19.3 µM with SK-OV-3 ovarian. Besides, the TGI with DU-145 prostate is 30.4 µM; with HCT-116 colon it was 21.7 µM; in the assay with IGROV1 ovarian it was 24.4 µM; in the assay with NCI-H23 lung it was 28.3 µM; in the assay on NCI-H460 lung it was 33 µM; with NCI/ADR-RES ovarian, 34.8 µM. The TGI in the assay on SK-MEL-28 melanoma was found to be 25.4 µM; with SK-OV-3 ovarian it was 34.2 µM.
For `CNC(=O)c1cn(C[C@H](F)CCc2ccc(NC(=O)Cc3cc(OC4CC(F)(F)C4)cc(C)n3)nn2)nn1`, the GI50 in the assay on DU-145 prostate, in the assay with HCT-116 colon, in the assay with IGROV1 ovarian, in the assay with NCI-H23 lung, with NCI-H460 lung and with NCI/ADR-RES ovarian was above 100 µM each time. For the same compound, the GI50 in the assay with SK-MEL-28 melanoma and in the assay with SK-OV-3 ovarian was above 100 µM throughout. The TGI in the assay with DU-145 prostate, with HCT-116 colon, in the assay on IGROV1 ovarian, in the assay on NCI-H23 lung, in the assay on NCI-H460 lung and in the assay on NCI/ADR-RES ovarian was above 100 µM in each case. Also, the TGI with SK-MEL-28 melanoma and in the assay on SK-OV-3 ovarian was above 100 µM throughout.
As for `COc1ccc(-c2cc(-c3cc(Cl)ccc3Cl)nc3nc(=S)[nH]c(N)c23)cc1`, the GI50 is 48.8 µM in the assay with DU-145 prostate; 15.1 µM in the assay with HCT-116 colon; 9.34 µM in the assay with IGROV1 ovarian; 22.1 µM in the assay on NCI-H23 lung; 47.6 µM with NCI-H460 lung; 20.1 µM in the assay with NCI/ADR-RES ovarian. Besides, the figures for the GI50 in the assay on SK-MEL-28 melanoma and in the assay with SK-OV-3 ovarian were 99.3 µM and 47.2 µM, respectively. In addition, the TGI in the assay with DU-145 prostate was above 100 µM; with HCT-116 colon, 28.4 µM; with IGROV1 ovarian it was above 100 µM; in the assay on NCI-H23 lung, 48.4 µM; in the assay with NCI-H460 lung, above 100 µM; in the assay on NCI/ADR-RES ovarian it was 45.2 µM. The TGI with SK-MEL-28 melanoma and in the assay on SK-OV-3 ovarian was above 100 µM in each case.
Take `CCN(Cc1c(F)cccc1F)c1ccc(CO)c(Cl)c1`: the GI50 in the assay on DU-145 prostate is 12.3 µM; in the assay on HCT-116 colon, 0.0291 µM; in the assay on IGROV1 ovarian it was 0.0401 µM; in the assay on NCI-H23 lung it was 15 µM; in the assay with NCI-H460 lung, 0.0663 µM; in the assay on NCI/ADR-RES ovarian, 6.86 µM. In addition, the results for the GI50 in the assay on SK-MEL-28 melanoma and in the assay on SK-OV-3 ovarian were 19.1 µM and 1.65 µM, respectively. For the same compound, the TGI stood at 47 µM with DU-145 prostate; 12.8 µM with HCT-116 colon; 0.193 µM with IGROV1 ovarian; 57.5 µM with NCI-H23 lung; 0.612 µM in the assay with NCI-H460 lung; 43.2 µM in the assay on NCI/ADR-RES ovarian. Besides, the TGI stood at 52.6 µM in the assay on SK-MEL-28 melanoma and 9.91 µM in the assay on SK-OV-3 ovarian.
In the case of `Cc1c(C(=O)NN)nnn1-c1ccnc2c(C(F)(F)F)cccc12`, the GI50 with DU-145 prostate, in the assay on HCT-116 colon, in the assay with IGROV1 ovarian, in the assay with NCI-H23 lung, in the assay with NCI-H460 lung and in the assay on NCI/ADR-RES ovarian was above 100 µM in each case. For the same compound, the GI50 in the assay with SK-MEL-28 melanoma and in the assay on SK-OV-3 ovarian was above 100 µM in each case. The TGI in the assay on DU-145 prostate, in the assay on HCT-116 colon, with IGROV1 ovarian, in the assay with NCI-H23 lung, in the assay with NCI-H460 lung and with NCI/ADR-RES ovarian was above 100 µM throughout. Moreover, the TGI with SK-MEL-28 melanoma and in the assay on SK-OV-3 ovarian was above 100 µM in each case.
In the case of `CCn1c(-c2nonc2N)nc2ccc(F)cc21`, the GI50 in the assay with DU-145 prostate, with HCT-116 colon, with IGROV1 ovarian, in the assay with NCI-H23 lung, in the assay on NCI-H460 lung and with NCI/ADR-RES ovarian was above 25 µM in each case. Besides, the GI50 in the assay on SK-MEL-28 melanoma and with SK-OV-3 ovarian was above 25 µM throughout. The TGI in the assay with DU-145 prostate, in the assay with HCT-116 colon, with IGROV1 ovarian, in the assay with NCI-H23 lung, in the assay with NCI-H460 lung and in the assay on NCI/ADR-RES ovarian was above 25 µM each time. The TGI with SK-MEL-28 melanoma and in the assay on SK-OV-3 ovarian was above 25 µM each time.
Take `Cc1sc(C)c(-c2ccc(CO)o2)c1-c1ccc(CO)o1`: the GI50 is above 100 µM with DU-145 prostate; 0.0695 µM in the assay with HCT-116 colon; 0.077 µM in the assay with IGROV1 ovarian; above 100 µM in the assay with NCI-H23 lung; 0.124 µM with NCI-H460 lung; above 84.4 µM with NCI/ADR-RES ovarian. Besides, the results for the GI50 in the assay on SK-MEL-28 melanoma and with SK-OV-3 ovarian were above 100 µM and 16.5 µM, respectively. In addition, the TGI is above 100 µM in the assay with DU-145 prostate; above 100 µM in the assay with HCT-116 colon; 0.472 µM with IGROV1 ovarian; above 100 µM in the assay with NCI-H23 lung; above 100 µM with NCI-H460 lung; above 100 µM with NCI/ADR-RES ovarian. Besides, the TGI with SK-MEL-28 melanoma and in the assay with SK-OV-3 ovarian was above 100 µM in each case.
Consider `CCCCCC(C(O)C#N)C(O)(C(F)(F)F)C(F)(F)F` (stereo not given), for which the TGI in the assay on DU-145 prostate, in the assay with HCT-116 colon, with IGROV1 ovarian, with NCI-H23 lung, in the assay with NCI/ADR-RES ovarian and in the assay on SK-MEL-28 melanoma was above 10 µM in each case. This compound displayed a TGI in the assay with SK-OV-3 ovarian above 10 µM.
